Experimental data published in patent publication US20080096947A1, “Parenteral Forms Of Administration Of Imexon And Method For The Production Thereof” (Heidelberg Pharma AG, priority 2004, published 2008).
Entries after “also recorded” stand apart in the source; their conditions may differ.

Assays:
[1] = Stability of imexon in organic solvents; format: physicochemical
[2] = background statement; therapeutically effective dosages only intravenously; cited from earlier work
[3] = Solubility of imexon in water; format: physicochemical
[4] = Stability of imexon in aqueous solution; format: physicochemical; settings: aziridine ring opens, isomerises to water-insoluble products

stability in organic solvents ([1]; some organic solvents, in contrast to water): remains stable over a prolonged period
solubility in water [3]: highly soluble in water
SMILES: N=C1NC(=O)N2CC12 (centres unmarked) [Imexon, 4-imino-1,3-diazabicyclo-(3.1.0)-hexane-2-one]
stability of solution in DMSO ([1]; DMSO): stable solution of imexon can be produced
bioavailability [2]: low bioavailability
stability in water / aqueous solutions [4]: not stable; also recorded: decomposes in aqueous solutions after a short period
